From patent US12109184B2, “Personalized methods of treating cancer” (CANCER RESEARCH TECHNOLOGY LIMITED, priority 2020, dated 2024)
“Also recorded” adds a separate entry of the source.

Key:
Format in all cases: cell-based
[1] = tested on: MDA-MB-231, MIAPaCa-2 and PANC-1 cells; test: Cell counting during cysteine starvation, starvation-sensitive cell lines; settings: medium without cysteine
[2] = tested on: breast, colorectal and pancreatic cancer cell lines; test: Cell counting in complete or cysteine-free medium, cell lines not given; settings: supplementation during cysteine starvation
[3] = tested on: SW480 and MDA-MB-231 cells; test: Cell counting, rescue by cysteine precursors during cysteine starvation; settings: supplement at 0.8 mM
Procedure: HCT116, SW480, MDA-MB-468, MDA-MB-231, AsPC-1, BxPC-3, CFPAC-1, MIAPaCa-2, PANC-1, Panc10.05, SW1990, U-251, LN-18, LN-229, T98G, U-343, A-172 cells were used. Cell lines were authenticated using Short Tandem Repeat (STR) profiling and tested for mycoplasma. Colorectal and breast cancer cell lines were grown in Dulbecco's Modified Eagle Medium (DMEM), pancreatic ductal adenocarcinoma (PDAC) cell lines were grown in Roswell Park Memorial institute (RPMI) 1640. All cell lines were supplemented with penicillin-streptomycin, amphotericin, 2 mM L-glutamine, and 10% fetal bovine serum (FBS). Cells were kept at 37° C. in 5% CO2 in a humidified cell culture incubator. A formulated medium lacking cysteine, cystine, methionine, and serine was used as a base for creating experimental media. The base medium formulation contained 0.2 mM L-histidine, 0.4 mM L-isoleucine, 0.4 mM L-leucine, 0.4 mM L-lysine, 0.2 mM L-phenylalanine, 0.4 mM L-threonine, 0.08 mM L-tryptophan, 0.4 mM L-valine, 0.2 mM L-arginine, 2 mM L-glutamine, 0.2 mM L-tyrosine, 0.4 mM L-alanine, 0.3 mM L-proline, 0.15 mM L-glutamic acid, 0.1 mM L-aspartic acid, 0.2 mM L-asparagine, and 0.4 mM glycine. The base medium was supplemented with 10% dialyzed FBS, penicillin-streptomycin, and amphotericin. To ensure an adequate supply of vitamin B6 (a crucial co-factor for de novo cysteine synthesis), base medium was supplemented with additional 20 μM vitamin B6. The control experimental medium was the base medium supplemented with 0.4 mM L-cysteine, 0.2 mM L-methionine, and 0.4 mM L-serine. The cysteine starvation (−Cys) experimental medium was base medium supplemented with 0.2 mM L-methionine and 0.4 mM L-serine.
Cells were seeded at 6×10^4 cells per well into 24-well plates (triplicate wells per condition) in the relevant complete medium and adhered for a full 24-hour period. A ‘time-0’ plate was included to record the starting cell number to calculate relative cell numbers. Cells were washed once with phosphate-buffered saline (PBS) before receiving experimental medium containing or lacking the specified amino acids, metabolites, or drugs. At the stated time-points the medium was removed, cells were fixed in a 4% formalin-PBS solution. Cells were then washed and stored in PBS before staining with 4′,6-diamidino-2-phenylindole (DAPI)-Triton™ X100-PBS solution for 1 hour, followed by storage in PBS at 4° C. until further analysis. DAPI-stained cell nuclei were detected via microscopy.
Homocysteine, cystathionine, glutathione, putrescine, spermine, spermidine, GPX4 inhibitor ML210, SMOX inhibitor MDL 72527, PAOX inhibitor diminazene aceturate, ferrostatin-1 and erastin were used. AMD1 inhibitor sardomozide/SAM486A, GPX4 inhibitor RSL3, and CSE inhibitor beta-cyano-L-alanine were used. […]

[4] = tested on: MTAP-expressing HCT116 cells; test: Cell counting during cysteine starvation, MTAP-expressing HCT116; settings: −Cys with or without methionine
Description: [NT] Successfully transfected cells were selected with puromycin and grown as clonal colonies. Clones were selected based initially on MTA efflux measured by liquid chromatography mass spectrometry (LC-MS). Clones with greatest MTA efflux were selected, and methylthioadenosine phosphorylase knockout (MTAP-KO) was then confirmed by western blot. MTAP-KO HCT116 cells were transfected with pCMV-Hygro-MTAP and pCMV-Hygro-negative control vector, selected using hygromycin B, and grown as clonal colonies. Clones were selected based initially on MTA efflux measured by LC-MS. Clones with low MTA efflux were selected, then MTAP re-expression was confirmed by western blot. […] DAPI-stained cell nuclei were detected via microscopy. For experiments using spermine oxidase (SMOX) and polyamine oxidase (PAOX) inhibitors or MTOB, cells were pre-treated with stated concentrations for 16 hours in complete medium. After pre-treatment, cells were washed in PBS, and treatment was continued in complete or cysteine-free medium for stated times. After treatment was finished, cells were fixed and stained as described above. For experiments using MTA, polyamines, GPX4 and CSE inhibitors, treatment started at the same time as cysteine starvation. For experiments involving hypoxic conditions, cells were seeded in normoxic conditions and allowed to adhere for 24 hours before control and cysteine starvation medium was added and cells were immediately transferred either to a humidified cell culture incubator set to 37° C. in 20% O2 (normoxia), or a hypoxia chamber set to 37° C. in 1% O2 (hypoxia) for the stated times. Cells were fixed immediately and stained as described above.

CSCC[C@H](N)C(=O)O [methionine]
sensitivity to cysteine starvation versus methionine concentration ([1]; methionine 0 to 10 μM, 17 h and 41 h): remained sensitive to cysteine starvation down to 5 μM methionine | sensitivity to cysteine starvation versus methionine concentration ([1]; methionine 10 μM-1000 μM, 20 h): remained highly sensitive | rescue from cysteine starvation-induced cell death (summary in discussion) [2]: unable to provide rescue; also recorded: did not | restoration of proliferation during cysteine starvation [3]: no rescue | effect of presence of methionine during cysteine starvation [4]: advantageous
